Data taken from patent publication US8940936B2, “Aryloxy phenoxy acrylic compound having HIF-1 inhibition activity, method for preparing same, and pharmaceutical composition containing same as an active ingredient” (Korea Research Institute of Bioscience and Biotechnology, priority 2010, dated 2015).

Assays:
[1] = Mouse weight changes and symptoms, repeated intravenous administration (HCT116 model); assay type: in vivo; conditions: for Mouse weight changes (%): iv once a day, Example 1 30 mg/kg, topotecan 2 mg/kg
Procedure: (§1) Female nude mice at 6 weeks (BALB/c nu/nu, Charles River) were raised in a germ-free facility where temperature and humidity were maintained at proper levels during the whole experimental period. After anesthetizing each mouse, the human rectal cancer cell line HCT116 was transplanted in rectal tissues at the density of 4×10^7 cells/mouse, and then the opened rectum was sealed with surgical clips. After transplanting the rectal cancer cell line, the tumor volume was measured with calipers. When the tumor volume reached 54.5 mm^3, the compound of the present invention prepared in example 1 was treated thereto. Particularly, for the experimental group, the compound of example 1 was dissolved in the solvent composed of saline (80%), DMAC (10%), and tween 80 (10%), which is indicated as ‘solvent A’ hereinafter, at the concentration of 30 mg/kg. The prepared compound solution was intravenously administered to the experimental group mice once a day at the dose of 15 mg/kg. The control was treated with the solvent A only without the compound once a day via oral administration at the dose of 15 ml/kg. The comparative group was treated with the solvent A containing topotecan (2 mg/kg) via intravenous injection once a day at the dose of 15 ml/kg. The weight and the tumor volume were measured once a day on day 0, 2, 3, 4, 5, 6, and 8.
(§2) Tumor volume was calculated by the following mathematical formula 1. To investigate the toxicity according to the repeated intravenous administration of the compound of example 1, mouse weight changes were observed and presented in Table 3. Inhibition rate (%) in Table 4 was calculated by the following mathematical formula 2, which indicates the inhibition of tumor growth by the compound presented by %. Tumor Volume(mm^3)=(major axis length of tumor cells, mm)×(minor axis length of tumor cells, mm)^2×0.5 [Mathematical Formula 1] Inhibition Rate (%)=[(Tumor Volume of Control−Tumor Volume of Experimental Group)/(Tumor Volume of Control)]×100 [Mathematical Formula 2]

[2] = Mouse weight changes and symptoms, intraperitoneal administration (B16F10 angiogenesis experiment); assay type: in vivo; conditions: for Mouse weight changes (%): ip, Example 1 20 mg/kg/day, topotecan 2 mg/kg/2 day
Procedure: Particularly, the experimental group composed of 5 female mice (C57BL) at 6 weeks was transplanted with B16F10 melanoma cell line. After the cancer cells were grown, the mice were treated with the compound of formula 1 via intraperitoneal injection at the dose of […] for 5 days. Inhibition of angiogenesis and the tumor growth were observed. In the meantime, the control group was treated with the mixed solution comprising 10% DMAC, 10% cremophor and 80% buffer (pH 10) every day. The comparative group was treated with topotecan at the dose of 2 mg/kg once every other day. Weight changes and the newly generated blood vessels were measured and the results are shown in Table 7, Table 8, FIG. 7, and FIG. 8. The tumor volume shown in Table 8 was calculated by the mathematical formula 1 of experimental example 4 and the inhibition rate was calculated by the mathematical formula 2 of experimental example 4.

[3] = system: human rectal cancer cell line HCT116; experiment: In vivo anticancer activity, intravenous injection, HCT116 rectal cancer in nude mice; parameters: species or system mouse; conditions: Example 1 30 mg/kg/day, topotecan 2 mg/kg/day; for Tumor volume changes (mm^3): iv; for Inhibition rate (%) of tumor volume: vs control
Procedure: To evaluate the inhibition effect of the compound prepared in example 1 administered via intravenous injection on the growth of rectal cancer, in vivo anticancer activity in mouse was measured. Particularly, nude-mice were grouped for experimental and control groups (5 mice per group). Changes in body weight, tumor volume, and tumor weight were measured to evaluate in vivo anticancer activity.
as §1, with “The prepared compound solution was intravenously administered to the experimental group mice once a day at the dose of 15 mg/kg.” left out
as §2

[4] = system: HIF-1; experiment: Inhibition of HIF-1 mediated HRE transcription activity (pGL3-HRE-luciferase reporter); assay type: cell-based, human; conditions: for HRE transcription activity (%): HCT116, hypoxic condition 12 hours
Procedure: To investigate the inhibition of HIF-1 transcription activity by the compound of the present invention, pGL3-basic vector (Promega) using luciferase as a reporter was cloned in multi-cloning site so as for HRE (Hypoxia Responsive Element, 5′-ACGTG-3′) existing in human VEGF gene to be repeated 6 times, resulting in the construction of pGL3-HRE-luciferase vector.
The human rectal cancer cell line HCT116 was seeded in a 48-well cell culture vessel. On the next day, the cells were transfected with 25 ng of pGL3-HRE-luciferase vector and 2.5 ng of Renilla control vector by using Polyfect reagent. After culturing the cells for 24 hours, the medium was replaced, followed by further culture for 4 hours. Then, the cells were treated with the compound prepared in each example at the concentration of 10 μM respectively, followed by culture in hypoxic condition (oxygen 1%, nitrogen 94%, carbon dioxide 5%) for 12 hours. Lysate was obtained by using RIPA buffer, by which hypoxia-induced luciferase activity was measured by using dual-luciferase assay system (Promega). Hypoxia-induced luciferase activity after the treatment of the compound prepared in example 1 or the compound prepared in comparative example 1 was measured by the same manner as described above except that the compound was treated at the concentrations of 0, 1, 3, 5, 10, and 20 μM. HIF-1 inhibition activity of each compound prepared in example 1 and comparative example 1 respectively was compared and the results are shown in Table 2 and FIG. 2.

| Mouse weight changes (%) ([1]; day 0) | Mouse weight changes (%) ([1]; day 2) | Mouse weight changes (%) ([1]; day 3) | Mouse weight changes (%) ([1]; day 4) | Mouse weight changes (%) ([1]; day 5) | Mouse weight changes (%) ([1]; day 6) | Mouse weight changes (%) ([1]; day 8) | Mouse weight changes (%) ([2]; day 0) | Mouse weight changes (%) ([2]; day 2) | Mouse weight changes (%) ([2]; day 5) | Compound | Tumor volume changes (mm^3) ([3]; day 0) | Tumor volume changes (mm^3) ([3]; day 2) | Inhibition rate (%) of tumor volume ([3]; day 2) | Tumor volume changes (mm^3) ([3]; day 4) | Inhibition rate (%) of tumor volume ([3]; day 4) | Tumor volume changes (mm^3) ([3]; day 6) | Inhibition rate (%) of tumor volume ([3]; day 6) | Tumor volume changes (mm^3) ([3]; day 8) | Inhibition rate (%) of tumor volume ([3]; day 8) | other results |
| --- | --- | --- | --- | --- | --- | --- | --- | --- | --- | --- | --- | --- | --- | --- | --- | --- | --- | --- | --- | --- |
| 100.0 ± 0.0% | 96.5 ± 2.9% | 94.7 ± 2.3% | 96.0 ± 3.5% | 100.3 ± 1.5% | 101.4 ± 2.5% | 99.9 ± 2.3% | 100.0 ± 0.0% | 102.6 ± 1.6% | 107.6 ± 3.9% | COC(=O)c1cccc(NC(=O)/C=C/Oc2ccc(C34CC5CC(CC(C5)C3)C4)cc2)c1 [Example 1, (E)-3-[3-(4-Adamantan-1-yl-phenoxy)-acryloylamino]-benzoic acid methyl ester] | 0.0 ± 0.0 mm^3 | 19.4 ± 5.8 mm^3 | 35.3% | 50.6 ± 20.9 mm^3 | 52.1% | 114.3 ± 36.8 mm^3 | 47.0% | 176.8 ± 50.0 mm^3 | 45.7% | body weight on day 8 compared with control ([1]; 30 mg/kg iv, nude mice): no significant weight loss; symptoms during repeated intravenous administration ([1]; 30 mg/kg iv, nude mice): no specific symptom was observed; body weight on the final day of observation (day 5) compared with control ([2]; 20 mg/kg ip, C57BL mice): not significantly reduced; symptoms during repeated intraperitoneal injection ([2]; 20 mg/kg ip, C57BL mice, 5 days): no specific symptom was observed; HRE transcription activity (%) ([4]; 1 μM): 57.7%; HRE transcription activity (%) ([4]; 3 μM): 32.1%; HRE transcription activity (%) ([4]; 5 μM): 25.4%; HRE transcription activity (%) ([4]; 10 μM): 23.0%; HRE transcription activity (%) ([4]; 20 μM): 19.8%; inhibition effect on HRE transcription activity compared with the compound of comparative example 1 ([4]; cancer cell line HCT116, hypoxia): at least three times higher inhibition effect |
| 100.0 ± 0.0% | 101.7 ± 1.0% | 101.8 ± 1.1% | 103.2 ± 5.4% | 99.1 ± 1.4% | 98.7 ± 1.7% | 95.6 ± 1.4% | 100.0 ± 0.0% | 101.2 ± 0.6% | 103.7 ± 1.4% | CC[C@@]1(O)C(=O)OCc2c1cc1n(c2=O)Cc2cc3c(CN(C)C)c(O)ccc3nc2-1 [topotecan, reference compound] | 0.0 ± 0.0 mm^3 | 16.5 ± 3.9 mm^3 | 44.9% | 44.3 ± 10.1 mm^3 | 58.1% | 69.1 ± 13.2 mm^3 | 67.9% | 93.1 ± 22.3 mm^3 | 71.4% | – |
